Results reported in publication PMC9663970, “New triazole-substituted triterpene derivatives exhibiting anti-RSV activity: synthesis, biological evaluation, and molecular modeling” (Beilstein Journal of Organic Chemistry, 2022).
Read-outs that look alike come from different tables or passages of the source.

Columns and labels:
RSV = experiment: Anti-RSV activity in RSV-infected A549 cells (MTT and SRB); format: cell-based, RSV A strain (line A2); conditions: for Therapeutic index (TI) = IC50(A549)/EC50(A549 + RSV): IC50 in A549; for Therapeutic index (TI) = IC50(B16F10)/EC50(A549 + RSV): IC50 in B16F10; for Therapeutic index (TI) = IC50(HEP2)/EC50(A549 + RSV): IC50 in HEP2; for Therapeutic index (TI) = IC50(VERO)/EC50(A549 + RSV): IC50 in VERO
A549 cells = experiment: cells; format: cell-based; conditions: for IC50: Homo sapiens, read-out: IC50 ± SD, concentration toxic to 50% of non-infected A549 cells
VERO cells = experiment: cells; format: cell-based; conditions: for IC50: Chlorocebus sabaeus, 96 h, read-out: IC50 ± SD, concentration toxic to 50% of non-infected VERO cells
B16F10 cells = experiment: cells; format: cell-based; conditions: for IC50: Mus musculus, read-out: IC50 ± SD, concentration toxic to 50% of non-infected B16F10 cells
HEP2 cells = experiment: cells; format: cell-based; conditions: for IC50: Homo sapiens, read-out: IC50 ± SD, concentration toxic to 50% of non-infected HEP2 cells
HIV protease = test system: HIV protease; parameters: method as in PMID 10071849; conditions: read-out: IC50 HIV protease inhibition; cited from earlier work
SARS-CoV [1] = conditions: cited from earlier work
SARS-CoV [2] = conditions: in vitro in Vero cells; read-out: IC50 against SARS-CoV; cited from earlier work
RSV protein F gene = format: cell-based; conditions: 12.5 µM, RSV-infected A549 cells, 96 h, compared to control
[3] = human respiratory syncytial virus, A549, read-out: EC50 ± SD, concentration that inhibits RSV replication by 50%, A549+RSV, treated 4 hours after viral infection, 96 h
[4] = MTT test, 96 h, non-infected A549 cells
[5] = MTT test, non-infected VERO cells
[6] = B16-F10, MTT test, 96 h, non-infected B16F10 cells
[7] = HEp-2, MTT test, 96 h, non-infected HEP2 cells
[8] = human respiratory syncytial virus, A549, A549+RSV, treated 4 hours after viral infection, 96 h, read-out: EC50 ± SD, concentration that inhibits RSV replication by 50%

SMILES | Therapeutic index (TI) = IC50(A549)/EC50(A549 + RSV) (RSV) | Therapeutic index (TI) = IC50(B16F10)/EC50(A549 + RSV) (RSV) | Therapeutic index (TI) = IC50(HEP2)/EC50(A549 + RSV) (RSV) | Therapeutic index (TI) = IC50(VERO)/EC50(A549 + RSV) (RSV) | EC50 (RSV; [3]) | IC50 (A549 cells; A549, 96 h) | IC50 (VERO cells; Vero) | IC50 (B16F10 cells; B16-F10, 96 h) | IC50 (HEP2 cells; HEp-2, 96 h) | EC50 (RSV; [8]) | other results
CC(=O)OC1CCC2(C)C(CCC3(C)C2CC=C2C4C(C)C(C)CCC4(C(=O)O)CCC23C)C1(C)C (stereo not drawn) [compound 4] | 9.3 | 0.9 | 1.2 | 0.9 | 14.3 µM |  |  |  |  |  | EC50 (RSV; read-out: EC50 ± SD, concentration that inhibits RSV replication by 50%, A549+RSV, treated 4 hours after viral infection, 96 h): 14.3 ± 0.6 µM; IC50 (A549 cells; [4]): 133 ± 1.1 µM; IC50 (VERO cells; [5]): 12.6 ± 1.2 µM; IC50 (B16F10 cells; [6]): 12.4 ± 0.8 µM; IC50 (HEP2 cells; [7]): 17.2 ± 0.9 µM
C=C(C)[C@@H]1CC[C@]2(C(=O)O)CC[C@]3(C)[C@H](CC[C@@H]4[C@@]5(C)CC[C@H](O)C(C)(C)[C@@H]5CC[C@]43C)[C@@H]12 [compound 1, betulinic acid, reference compound] | 3.4 | 4.3 | 5.3 | 2.7 | 5.3 ± 0.7 µM | 17.8 ± 0.6 µM | 14.2 ± 0.2 µM | 22.7 ± 0.8 µM | 28 ± 0.3 µM |  | IC50 (HIV protease): 8 µM; SI anti-SARS-CoV activity (SARS-CoV [1]): > 10; EC50 (SARS-CoV [1]; read-out: EC50 anti-SARS-CoV activity): 10 µM
CC1(C)[C@@H](O[C@H]2O[C@H](C(=O)O)[C@@H](O)[C@H](O)[C@H]2O[C@@H]2O[C@H](C(=O)O)[C@@H](O)[C@H](O)[C@H]2O)CC[C@]2(C)[C@H]3C(=O)C=C4[C@@H]5C[C@@](C)(C(=O)O)CC[C@]5(C)CC[C@@]4(C)[C@]3(C)CC[C@@H]12 [glycyrrhizic acid] |  |  |  |  |  |  |  |  |  |  | IC50 (SARS-CoV [2]): 365 µM
NC(=O)c1ncn([C@@H]2O[C@H](CO)[C@@H](O)[C@H]2O)n1 [RBV, ribavirin, reference compound] |  |  |  |  |  |  |  |  |  | 4.9 ± 1.4 µM | 
CC(=O)OC1CCC2(C)C(CCC3(C)C2CC=C2C4C(C)C(C)CCC4(C(=O)OCc4cn(-c5cccc([N+](=O)[O-])c5)nn4)CCC23C)C1(C)C (stereo not drawn) [compound 8] |  | 196.0 | 398.0 | 432.0 | 0.053 µM | 59.2 ± 0.9 µM | 21.6 ± 0.9 µM | 9.8 ± 0.6 µM | 19.9 ± 1.2 µM |  | Cytotoxicity (in words) (A549 cells; non-infected A549 cells): low cytotoxicity; Cytotoxicity (in words) (VERO cells; non-infected VERO cells): low cytotoxicity; Cytotoxicity (in words) (B16F10 cells; non-infected B16F10 cells): low cytotoxicity; Reduction of RSV protein F gene expression (RSV protein F gene): approximately 65%; Cytotoxicity (in words) (HEP2 cells; non-infected HEP2 cells): low cytotoxicity
C#CCOC(=O)[C@]12CC[C@@H](C)[C@H](C)[C@H]1C1=CC[C@@H]3[C@@]4(C)CC[C@H](OC(C)=O)C(C)(C)[C@@H]4CC[C@@]3(C)[C@]1(C)CC2 [compound 6] | 1.9 | 0.8 | 0.6 | 0.7 |  |  |  |  |  | 36.2 ± 0.9 µM | IC50 (A549 cells; [4]): 67.2 ± 0.5 µM; IC50 (VERO cells; [5]): 26.1 ± 0.6 µM; IC50 (B16F10 cells; [6]): 29 ± 1.1 µM; IC50 (HEP2 cells; [7]): 20.3 ± 0.4 µM
C#CCOC(=O)[C@]12CC[C@@H](C(=C)C)[C@@H]1[C@H]1CC[C@@H]3[C@@]4(C)CC[C@H](OC(C)=O)C(C)(C)[C@@H]4CC[C@@]3(C)[C@]1(C)CC2 [compound 5] | 148.0 | 42.7 | 30.7 | 24.2 |  | 88.8 ± 1 µM | 14.5 ± 0.2 µM | 25.6 ± 0.5 µM | 18.4 ± 0.6 µM | 0.6 ± 0.8 µM | 
C=C(C)[C@@H]1CC[C@]2(C(=O)OCc3cn(-c4cccc([N+](=O)[O-])c4)nn3)CC[C@]3(C)[C@H](CC[C@@H]4[C@@]5(C)CC[C@H](OC(C)=O)C(C)(C)[C@@H]5CC[C@]43C)[C@@H]12 [compound 7] | 142.3 | 62.7 | 79.3 | 63.0 |  | 42.7 ± 0.6 µM | 18.9 ± 1.4 µM | 18.8 ± 0.7 µM | 23.8 ± 2 µM | 0.314 µM | EC50 (RSV; A549+RSV, treated 4 hours after viral infection, 96 h, read-out: EC50 ± SD, concentration that inhibits RSV replication by 50%): 0.3 ± 0.1 µM
C=C(C)[C@@H]1CC[C@]2(C(=O)O)CC[C@]3(C)[C@H](CC[C@@H]4[C@@]5(C)CC[C@H](OC(C)=O)C(C)(C)[C@@H]5CC[C@]43C)[C@@H]12 [compound 3] | 1.2 | 0.2 | 0.3 | 0.3 | 44.4 ± 0.5 µM | 53 ± 0.9 µM | 13.4 ± 2.1 µM | 10.2 ± 1.1 µM | 11.5 ± 1.5 µM |  | 
C[C@H]1[C@H](C)CC[C@]2(C(=O)O)CC[C@]3(C)C(=CC[C@@H]4[C@@]5(C)CC[C@H](O)C(C)(C)[C@@H]5CC[C@]43C)[C@H]12 [compound 2, ursolic acid, reference compound] | 1.5 | 0.9 | 1.6 | 0.8 | 17.3 ± 0.9 µM | 26.7 ± 0.9 µM | 12.9 ± 0.8 µM | 16.2 ± 0.8 µM | 26.9 ± 0.4 µM |  | IC50 (HIV protease): 9 µM
